Data taken from ChEMBL document CHEMBL4507300 (2021).

Legend:
[1] = molecular target: RAC-alpha serine/threonine-protein kinase (Homo sapiens) (UniProt P31749); details: Compound concentration 1000.0 nM
[2] = molecular target: Serine/threonine-protein kinase B-raf (Homo sapiens) (UniProt P15056); details: Compound concentration 1000.0 nM
[3] = molecular target: Peripheral plasma membrane protein CASK (Homo sapiens) (UniProt O14936); details: Compound concentration 1000.0 nM
[4] = molecular target: Cyclin-dependent kinase 13 (Homo sapiens) (UniProt Q14004); details: Compound concentration 1000.0 nM
Cyclin-dependent kinase 13 (Homo sapiens), sequence (Q14004 whole entry, looked up): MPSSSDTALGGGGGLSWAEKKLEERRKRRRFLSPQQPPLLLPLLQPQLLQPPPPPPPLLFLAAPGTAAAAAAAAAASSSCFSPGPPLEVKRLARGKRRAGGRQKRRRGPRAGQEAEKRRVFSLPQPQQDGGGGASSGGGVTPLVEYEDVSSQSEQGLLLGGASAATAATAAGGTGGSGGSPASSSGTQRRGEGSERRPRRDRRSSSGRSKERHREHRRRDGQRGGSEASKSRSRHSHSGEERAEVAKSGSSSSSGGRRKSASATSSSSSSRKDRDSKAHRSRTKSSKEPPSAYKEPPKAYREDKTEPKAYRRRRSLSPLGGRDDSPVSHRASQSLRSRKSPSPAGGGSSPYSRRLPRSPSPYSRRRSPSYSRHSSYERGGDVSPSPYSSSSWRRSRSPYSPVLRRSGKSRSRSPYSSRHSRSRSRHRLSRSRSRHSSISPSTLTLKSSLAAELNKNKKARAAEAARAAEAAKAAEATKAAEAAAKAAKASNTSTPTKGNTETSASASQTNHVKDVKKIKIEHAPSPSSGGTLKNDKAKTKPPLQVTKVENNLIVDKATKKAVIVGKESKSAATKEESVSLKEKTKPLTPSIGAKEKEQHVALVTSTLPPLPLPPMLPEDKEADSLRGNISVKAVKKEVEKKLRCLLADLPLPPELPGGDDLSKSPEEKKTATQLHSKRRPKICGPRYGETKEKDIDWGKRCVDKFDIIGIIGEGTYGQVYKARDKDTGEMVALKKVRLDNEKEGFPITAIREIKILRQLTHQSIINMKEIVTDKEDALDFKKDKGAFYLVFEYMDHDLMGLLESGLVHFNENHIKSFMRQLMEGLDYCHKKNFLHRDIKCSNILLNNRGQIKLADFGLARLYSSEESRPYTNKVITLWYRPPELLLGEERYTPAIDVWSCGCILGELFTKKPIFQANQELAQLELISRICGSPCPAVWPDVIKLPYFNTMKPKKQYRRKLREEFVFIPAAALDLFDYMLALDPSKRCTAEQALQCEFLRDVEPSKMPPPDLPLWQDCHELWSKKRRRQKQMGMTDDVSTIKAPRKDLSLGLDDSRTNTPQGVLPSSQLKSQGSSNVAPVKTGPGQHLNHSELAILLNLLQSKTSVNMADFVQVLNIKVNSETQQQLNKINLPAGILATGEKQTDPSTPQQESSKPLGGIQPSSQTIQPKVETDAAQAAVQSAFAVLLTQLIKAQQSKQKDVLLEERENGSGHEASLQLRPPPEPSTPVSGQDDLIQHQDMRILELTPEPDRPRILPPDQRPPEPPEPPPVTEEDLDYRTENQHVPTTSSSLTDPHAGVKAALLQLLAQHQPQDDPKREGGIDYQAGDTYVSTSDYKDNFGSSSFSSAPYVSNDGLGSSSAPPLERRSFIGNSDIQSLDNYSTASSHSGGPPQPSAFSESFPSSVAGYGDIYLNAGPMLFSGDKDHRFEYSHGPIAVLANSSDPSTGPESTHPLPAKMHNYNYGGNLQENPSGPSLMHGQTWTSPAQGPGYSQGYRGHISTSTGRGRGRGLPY

[5] = molecular target: Citron Rho-interacting kinase (Homo sapiens) (UniProt O14578); details: Compound concentration 1000.0 nM
[6] = molecular target: Casein kinase I isoform gamma-1 (Homo sapiens) (UniProt Q9HCP0); details: Compound concentration 1000.0 nM
[7] = molecular target: Serine/threonine-protein kinase DCLK2 (Homo sapiens) (UniProt Q8N568); details: Compound concentration 1000.0 nM
[8] = molecular target: Ephrin type-A receptor 2 (Homo sapiens) (UniProt P29317); details: Compound concentration 1000.0 nM
Ephrin type-A receptor 2 (Homo sapiens), sequence (P29317 whole entry): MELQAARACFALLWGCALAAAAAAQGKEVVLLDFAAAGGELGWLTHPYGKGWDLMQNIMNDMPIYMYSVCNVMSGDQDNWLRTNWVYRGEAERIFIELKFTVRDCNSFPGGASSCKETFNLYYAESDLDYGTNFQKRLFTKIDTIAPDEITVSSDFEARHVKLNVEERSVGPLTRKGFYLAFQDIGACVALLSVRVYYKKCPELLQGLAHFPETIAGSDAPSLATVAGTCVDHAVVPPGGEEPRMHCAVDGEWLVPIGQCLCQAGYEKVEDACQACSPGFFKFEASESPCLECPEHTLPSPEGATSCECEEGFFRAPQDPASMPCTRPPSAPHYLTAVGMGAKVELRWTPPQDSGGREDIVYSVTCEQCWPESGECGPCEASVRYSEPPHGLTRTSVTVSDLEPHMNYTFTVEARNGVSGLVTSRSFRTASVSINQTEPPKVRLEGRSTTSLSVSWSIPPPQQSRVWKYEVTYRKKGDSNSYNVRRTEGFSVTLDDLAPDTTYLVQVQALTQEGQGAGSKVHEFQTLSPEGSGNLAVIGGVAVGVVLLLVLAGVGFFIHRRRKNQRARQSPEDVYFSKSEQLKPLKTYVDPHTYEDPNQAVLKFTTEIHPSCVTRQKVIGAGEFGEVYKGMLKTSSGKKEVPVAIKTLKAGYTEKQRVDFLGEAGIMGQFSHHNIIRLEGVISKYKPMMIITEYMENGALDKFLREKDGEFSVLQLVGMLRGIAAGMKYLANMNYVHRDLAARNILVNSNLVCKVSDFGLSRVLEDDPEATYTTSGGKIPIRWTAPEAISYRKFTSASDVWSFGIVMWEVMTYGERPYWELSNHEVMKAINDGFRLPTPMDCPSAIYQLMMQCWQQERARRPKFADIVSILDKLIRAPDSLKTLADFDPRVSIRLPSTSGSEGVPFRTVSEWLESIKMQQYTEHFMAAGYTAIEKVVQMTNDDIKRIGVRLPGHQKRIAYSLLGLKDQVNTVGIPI

[9] = molecular target: Ephrin type-A receptor 7 (Homo sapiens) (UniProt Q15375); details: Compound concentration 1000.0 nM
[10] = molecular target: Mitogen-activated protein kinase 1 (Homo sapiens) (UniProt P28482); details: Compound concentration 1000.0 nM
[11] = molecular target: Receptor-type tyrosine-protein kinase FLT3 (Homo sapiens) (UniProt P36888); details: Compound concentration 1000.0 nM
[12] = test system: Receptor-type tyrosine-protein kinase FLT3 (Homo sapiens), P36888 [D835H]; details: Compound concentration 1000.0 nM
[13] = test system: Receptor-type tyrosine-protein kinase FLT3 (Homo sapiens), P36888 [N841I]; details: Compound concentration 1000.0 nM
[14] = molecular target: Tyrosine-protein kinase FRK (Homo sapiens) (UniProt P42685); details: Compound concentration 1000.0 nM
[15] = molecular target: Mitogen-activated protein kinase 10 (Homo sapiens) (UniProt P53779); details: Compound concentration 1000.0 nM
Mitogen-activated protein kinase 10 (Homo sapiens), sequence (P53779 whole entry, the tested form may be a part): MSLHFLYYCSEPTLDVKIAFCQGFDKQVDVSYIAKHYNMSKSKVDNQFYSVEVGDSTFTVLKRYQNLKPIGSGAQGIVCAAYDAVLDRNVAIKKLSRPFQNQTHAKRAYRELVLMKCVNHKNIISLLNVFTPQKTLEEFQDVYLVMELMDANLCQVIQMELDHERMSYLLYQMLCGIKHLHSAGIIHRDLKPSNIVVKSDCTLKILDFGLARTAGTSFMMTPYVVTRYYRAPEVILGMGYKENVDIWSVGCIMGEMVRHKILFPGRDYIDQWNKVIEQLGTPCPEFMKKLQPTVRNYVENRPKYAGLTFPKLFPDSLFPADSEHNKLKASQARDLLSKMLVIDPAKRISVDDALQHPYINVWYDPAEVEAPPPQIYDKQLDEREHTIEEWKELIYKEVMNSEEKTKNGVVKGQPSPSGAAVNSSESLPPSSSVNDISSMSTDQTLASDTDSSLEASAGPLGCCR

[16] = molecular target: LIM domain kinase 2 (Homo sapiens) (UniProt P53671); details: Compound concentration 1000.0 nM
[17] = molecular target: Microtubule-associated serine/threonine-protein kinase 1 (Homo sapiens) (UniProt Q9Y2H9); details: Compound concentration 1000.0 nM
[18] = molecular target: Dual specificity mitogen-activated protein kinase kinase 2 (Homo sapiens) (UniProt P36507); details: Compound concentration 1000.0 nM
Dual specificity mitogen-activated protein kinase kinase 2 (Homo sapiens), sequence (P36507 whole entry): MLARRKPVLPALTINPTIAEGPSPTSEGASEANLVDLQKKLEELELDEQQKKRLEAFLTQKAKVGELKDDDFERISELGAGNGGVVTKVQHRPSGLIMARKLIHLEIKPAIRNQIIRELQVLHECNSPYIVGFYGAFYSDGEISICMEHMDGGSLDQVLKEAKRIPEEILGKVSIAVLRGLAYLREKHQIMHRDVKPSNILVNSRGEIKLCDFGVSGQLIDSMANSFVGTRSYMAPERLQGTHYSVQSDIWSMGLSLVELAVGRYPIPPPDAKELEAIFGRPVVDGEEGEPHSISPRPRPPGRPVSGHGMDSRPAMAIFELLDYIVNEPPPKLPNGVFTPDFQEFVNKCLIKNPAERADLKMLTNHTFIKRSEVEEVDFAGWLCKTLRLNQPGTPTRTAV

[19] = molecular target: Macrophage-stimulating protein receptor (Homo sapiens) (UniProt Q04912); details: Compound concentration 1000.0 nM
[20] = molecular target: Serine/threonine-protein kinase Nek2 (Homo sapiens) (UniProt P51955); details: Compound concentration 1000.0 nM
Serine/threonine-protein kinase Nek2 (Homo sapiens), sequence (P51955 whole entry): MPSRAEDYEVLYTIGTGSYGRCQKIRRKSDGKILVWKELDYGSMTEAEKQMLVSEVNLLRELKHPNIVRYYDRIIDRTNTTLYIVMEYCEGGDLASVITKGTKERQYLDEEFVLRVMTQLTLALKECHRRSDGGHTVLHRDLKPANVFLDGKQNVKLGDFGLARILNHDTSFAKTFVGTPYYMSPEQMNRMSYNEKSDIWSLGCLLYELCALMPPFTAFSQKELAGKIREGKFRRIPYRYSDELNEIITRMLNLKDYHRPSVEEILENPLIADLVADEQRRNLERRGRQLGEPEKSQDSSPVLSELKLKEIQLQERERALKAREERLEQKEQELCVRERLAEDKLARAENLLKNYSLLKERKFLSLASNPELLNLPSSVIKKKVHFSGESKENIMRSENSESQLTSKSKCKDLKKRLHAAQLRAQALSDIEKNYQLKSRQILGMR

[21] = molecular target: Serine/threonine-protein kinase Nek7 (Homo sapiens) (UniProt Q8TDX7); details: Compound concentration 1000.0 nM
[22] = molecular target: Mitogen-activated protein kinase kinase kinase 14 (Homo sapiens) (UniProt Q99558); details: Compound concentration 1000.0 nM
[23] = molecular target: Serine/threonine-protein kinase PAK 1 (Homo sapiens) (UniProt Q13153); details: Compound concentration 1000.0 nM
[24] = molecular target: Serine/threonine-protein kinase PAK 2 (Homo sapiens) (UniProt Q13177); details: Compound concentration 1000.0 nM
[25] = molecular target: Serine/threonine-protein kinase PAK 5 (Homo sapiens) (UniProt Q9P286); details: Compound concentration 1000.0 nM
[26] = molecular target: Platelet-derived growth factor receptor beta (Homo sapiens) (UniProt P09619); details: Compound concentration 1000.0 nM
[27] = molecular target: Cyclin-dependent kinase 14 (Homo sapiens) (UniProt O94921); details: Compound concentration 1000.0 nM
[28] = molecular target: Phosphatidylinositol 4,5-bisphosphate 3-kinase catalytic subunit beta isoform (Homo sapiens) (UniProt P42338); details: Compound concentration 1000.0 nM
[29] = molecular target: Phosphatidylinositol 4-phosphate 5-kinase type-1 alpha (Homo sapiens) (UniProt Q99755); details: Compound concentration 1000.0 nM
[30] = molecular target: Serine/threonine-protein kinase SIK3 (Homo sapiens) (UniProt Q9Y2K2); details: Compound concentration 1000.0 nM
[31] = test system: Proto-oncogene tyrosine-protein kinase receptor Ret (Homo sapiens), P07949 [V804M]; details: Compound concentration 1000.0 nM
[32] = molecular target: Serine/threonine-protein kinase RIO2 (Homo sapiens) (UniProt Q9BVS4); details: Compound concentration 1000.0 nM
[33] = molecular target: Dual serine/threonine and tyrosine protein kinase (Homo sapiens) (UniProt Q6XUX3); details: Compound concentration 1000.0 nM
[34] = molecular target: Rho-associated protein kinase 1 (Homo sapiens) (UniProt Q13464); details: Compound concentration 1000.0 nM
[35] = molecular target: Ribosomal protein S6 kinase alpha-5 (Homo sapiens) (UniProt O75582); details: Compound concentration 1000.0 nM
[36] = molecular target: Ribosomal protein S6 kinase alpha-1 (Homo sapiens) (UniProt Q15418); details: Compound concentration 1000.0 nM
[37] = molecular target: Ribosomal protein S6 kinase alpha-2 (Homo sapiens) (UniProt Q15349); details: Compound concentration 1000.0 nM
[38] = molecular target: STE20-like serine/threonine-protein kinase (Homo sapiens) (UniProt Q9H2G2); details: Compound concentration 1000.0 nM
[39] = molecular target: SRSF protein kinase 3 (Homo sapiens) (UniProt Q9UPE1); details: Compound concentration 1000.0 nM
SRSF protein kinase 3 (Homo sapiens), sequence (Q9UPE1 whole entry): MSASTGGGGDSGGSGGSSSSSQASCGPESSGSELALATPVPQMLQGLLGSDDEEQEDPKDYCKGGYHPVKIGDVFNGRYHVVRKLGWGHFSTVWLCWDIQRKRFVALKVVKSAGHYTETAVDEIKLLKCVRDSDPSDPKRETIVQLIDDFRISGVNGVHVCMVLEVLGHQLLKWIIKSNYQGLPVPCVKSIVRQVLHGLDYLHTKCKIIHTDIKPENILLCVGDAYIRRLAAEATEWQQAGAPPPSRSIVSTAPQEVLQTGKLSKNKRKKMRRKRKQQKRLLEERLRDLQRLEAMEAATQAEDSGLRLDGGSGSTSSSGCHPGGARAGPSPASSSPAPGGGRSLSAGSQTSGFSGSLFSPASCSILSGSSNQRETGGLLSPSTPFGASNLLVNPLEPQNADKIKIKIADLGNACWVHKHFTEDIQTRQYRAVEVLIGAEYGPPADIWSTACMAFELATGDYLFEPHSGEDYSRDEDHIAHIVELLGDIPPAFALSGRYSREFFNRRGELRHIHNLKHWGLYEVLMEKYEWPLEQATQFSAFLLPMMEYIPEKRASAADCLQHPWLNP

[40] = molecular target: Serine/threonine-protein kinase 36 (Homo sapiens) (UniProt Q9NRP7); details: Compound concentration 1000.0 nM
[41] = molecular target: Tyrosine-protein kinase Tec (Homo sapiens) (UniProt P42680); details: Compound concentration 1000.0 nM
[42] = molecular target: Angiopoietin-1 receptor (Homo sapiens) (UniProt Q02763); details: Compound concentration 1000.0 nM
[43] = molecular target: Histamine H2 receptor (Homo sapiens) (UniProt P25021); details: Compound concentration 10.0 uM
[44] = molecular target: Alpha-2B adrenergic receptor (Homo sapiens) (UniProt P18089); details: Compound concentration 10.0 uM
[45] = molecular target: Muscarinic acetylcholine receptor M5 (Homo sapiens) (UniProt P08912); details: Compound concentration 10.0 uM
Muscarinic acetylcholine receptor M5 (Homo sapiens), sequence (P08912 whole entry): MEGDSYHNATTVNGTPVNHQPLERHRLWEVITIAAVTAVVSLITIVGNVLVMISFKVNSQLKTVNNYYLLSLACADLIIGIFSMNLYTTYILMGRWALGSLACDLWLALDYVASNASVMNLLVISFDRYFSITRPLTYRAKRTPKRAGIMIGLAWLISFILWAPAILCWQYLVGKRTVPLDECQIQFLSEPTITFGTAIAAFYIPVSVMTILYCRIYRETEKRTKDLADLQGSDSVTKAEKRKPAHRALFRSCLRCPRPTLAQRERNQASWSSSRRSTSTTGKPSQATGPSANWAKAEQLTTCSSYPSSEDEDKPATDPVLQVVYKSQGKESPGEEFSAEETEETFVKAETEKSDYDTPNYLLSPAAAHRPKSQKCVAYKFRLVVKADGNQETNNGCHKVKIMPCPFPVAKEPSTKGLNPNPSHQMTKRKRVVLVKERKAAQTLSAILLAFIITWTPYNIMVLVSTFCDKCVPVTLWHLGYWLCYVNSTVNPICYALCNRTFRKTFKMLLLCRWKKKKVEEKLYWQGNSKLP

Rattus norvegicus = species: Rattus norvegicus; details: Compound concentration 10.0 uM

COc1cccc(CNC(=O)c2nc3scc(COCc4ccc(C(=O)O)cc4)c3c(=O)[nH]2)c1 [T-26c]
inactive: residual activity [1] 99.9% | residual activity [2] 72.8% | residual activity [3] 67.3% | residual activity [4] 67.6% | residual activity [5] 100% | residual activity [6] 100% | residual activity [7] 100% | residual activity [8] 100% | residual activity [9] 86.5% | residual activity [10] 100% | residual activity [11] 85% | residual activity [12] 92.9% | residual activity [13] 100% | residual activity [14] 83.7% | residual activity [15] 76.6% | residual activity [16] 96.2% | residual activity [17] 84.4% | residual activity [18] 75.1% | residual activity [19] 81.9% | residual activity [20] 100% | residual activity [21] 100% | residual activity [22] 100% | residual activity [23] 100% | residual activity [24] 100% | residual activity [25] 87.4% | residual activity [26] 99% | residual activity [27] 100% | residual activity [28] 54.8% | residual activity [29] 100% | residual activity [30] 63.5% | residual activity [31] 95.3% | residual activity [32] 72.4% | residual activity [33] 54.5% | residual activity [34] 100% | residual activity [35] 98% | residual activity [36] 100% | residual activity [37] 100% | residual activity [38] 100% | residual activity [39] 70.1% | residual activity [40] 100% | residual activity [41] 86% | residual activity [42] 100% | inhibition [43] 28.4% | inhibition [44] 11% | inhibition [45] -7.42% | inhibition (Rattus norvegicus) 3.29%
